Experimental data: patent US20160213742A1, “COMPOSITIONS AND METHODS FOR THE TREATMENT OF FUNGAL INFECTIONS” (priority 2013, published 2016)
Entries after “also recorded” stand apart in the source; their conditions may differ.

Experiments:
human neutrophils = test: Microfluidic Neutrophil Chemotaxis assay; assay type: cell-based; conditions: for neutrophil (NF) migration counts (FIG. 1): 4 hour timepoint, in the presence of Aspergillus fumigatus, Compound 1, Compound 11, caspofungin acetate 10 nM, fMLP 100 nM, relative to A. fumigatus alone
Source text: Two layers of photoresist (SU8; […] The wafer with patterned photoresist was used as a mold to produce polydimethylsiloxane (PDMS) (Fisher Scientific) devices, which were then bonded to the base of glass-bottom 12- or 24-well plates, using an oxygen plasma machine (Nordson-March). De-identified, fresh human blood samples from healthy volunteers, aged 18 years and older, who were not receiving immunosuppressants, were purchased from Research Blood Components, LLC. Peripheral blood was drawn in tubes containing a final concentration of 5 mM EDTA (Vacutainer; Becton Dickinson) and processed within 2 h of blood collection. Using a sterile technique, neutrophils were isolated from whole blood using HetaSep followed by the EasySep Human Neutrophil Enrichment Kit (STEMCELL Technologies) following the manufacturer's protocol. The purity of neutrophils was assessed to be >98% using the Sysmex KX-21N Hematology Analyzer (Sysmex America, Inc.). White blood cells were isolated using Hetasep followed by a 5 min spin down and wash with 1×PBS. White blood cells were stained with Hoechst (32.4 μM) (Sigma) following the manufacture's protocols. The final aliquots of white blood cells were resuspended in RPMI plus 10% fetal bovine serum (FBS−stock 50 mL FBS/450 mL RPMI) (Sigma-Aldrich) at a concentration of 20,000 cells/2 μL and kept at 37° C. Cells were then immediately introduced into the microfluidic device for the chemotaxis and Aspergillus fumigatus killing assay. All experiments were repeated at least three times with neutrophils or white blood cells from three different healthy donors. Immediately after bonding to the well plate, donut-shaped devices were filled with Aspergillus fumigatus conidia at a concentration of 10^6 cells/mL with or without either Compound 1 or Compound 11 [10 nM], caspofungin acetate [10 nM] and/or a solution of the chemoattractant N-formyl-methionyl-leucyl-phenylalanine (fMLP) [100 nM](Sigma-Aldrich, St. Louis, Mo.). The device was then placed in a vacuum for 15 min. The solution filled all of the FCCs as the air was displaced. The devices were then vigorously washed five times with 1×PBS to remove any residual Aspergillus fumigatus conidia, drug or chemoattractant that was outside of the FCCs. The device was then submerged in 0.5 mL of cell media. Neutrophils or white blood cells (20,000 cells/2 μL) were then pipetted into the cell loading chamber (CLC) using a gel-loading pipette tip. […] Image analysis of cell migration counts and fungi growth was analyzed by hand using Image J software. Neutrophil counts per chamber were counted every 15 min for the first 2 hours of the experiment and then every hour for the remaining 16 hours. Percentage of conidia that converted to hyphal growth was measured by counting conidia loaded per chamber before neutrophils or WBCs were loaded into the chamber and counting numbers of these conidia that grew hyphae by 18 hours. Fungal growth velocity was calculated using Image J. The 16 chambers in each device (n=3) were analyzed for at least three different healthy donors.

[1] = test system: Aspergillus fumigatus strain AF293; test: Microfluidic Aspergillus fumigatus Killing Assay with human neutrophils; assay type: cell-based; conditions: for percent hyphal growth compared to remaining conidia (FIG. 2): with added neutrophils (NFs), Compound 1, Compound 11, caspofungin acetate 10 nM, fMLP 100 nM, hyphae by 18 hours; for timecourse of A. fumigatus (Af) growth in FCCs (FIG. 4): in presence of PMNs, three healthy blood donors, t=0, 8, and 16 hours
Source text: Microfluidic devices used to measure leukocyte migration in response to Aspergillus fumigatus with or without drug (Compound 1 or Compound 11), antifungal control (caspofungin acetate) and/or chemoattractant (fMLP) were manufactured using known microfabrication techniques. Two layers of photoresist (SU8; Microchem), the first one 10 μm thin (corresponding to the migration channels) and the second one 70 μm thick, corresponding to the focal chemotactic chambers (FCCs) were patterned on one silicon wafer sequentially using two photolithographic masks and processing cycles according to the instructions from the manufacturer. The wafer with patterned photoresist was used as a mold to produce polydimethylsiloxane (PDMS) (Fisher Scientific) devices, which were then bonded to the base of glass-bottom 12- or 24-well plates, using an oxygen plasma machine (Nordson-March).
Aspergillus fumigatus strain AF293 expressing either cytosolic red fluorescent protein (RFP) or green fluorescent protein (GFP) was grown on Sabouraud dextrose agar plates supplemented with 100 μg/mL ampicillin at 30° C. for 3-4 days. Conidia were harvested by gentle scraping followed by washing in ice-cold phosphate buffered saline (PBS) three times. Conidia were immediately used or stored at 4° C. for use within one week.
De-identified, fresh human blood samples from healthy volunteers, aged 18 years and older, who were not receiving immunosuppressants, were purchased from Research Blood Components, LLC. Peripheral blood was drawn in tubes containing a final concentration of 5 mM EDTA (Vacutainer; Becton Dickinson) and processed within 2 h of blood collection. Using a sterile technique, neutrophils were isolated from whole blood using HetaSep followed by the EasySep Human Neutrophil Enrichment Kit ([…] Technologies) following the manufacturer's protocol. The purity of neutrophils was assessed to be >98% using the Sysmex KX-21N Hematology Analyzer (Sysmex America, Inc.). White blood cells were isolated using Hetasep followed by a 5 min spin down and wash with 1×PBS. White blood cells were stained with Hoechst (32.4 μM) (Sigma) following the manufacture's protocols. The final aliquots of white blood cells were resuspended in RPMI plus 10% fetal bovine serum (FBS−stock 50 mL FBS/450 mL RPMI) (Sigma-Aldrich) at a concentration of 20,000 cells/2 μL and kept at 37° C. Cells were then immediately introduced into the microfluidic device for the chemotaxis and Aspergillus fumigatus killing assay. All experiments were repeated at least three times with neutrophils or white blood cells from three different healthy donors.
Immediately after bonding to the well plate, donut-shaped devices were filled with Aspergillus fumigatus conidia at a concentration of 10^6 cells/mL with or without either Compound 1 or Compound 11 [10 nM], caspofungin acetate [10 nM] and/or a solution of the chemoattractant N-formyl-methionyl-leucyl-phenylalanine (fMLP) [100 nM](Sigma-Aldrich, St. Louis, Mo.). The device was then placed in a vacuum for 15 min. The solution filled all of the FCCs as the air was displaced. The devices were then vigorously washed five times with 1×PBS to remove any residual Aspergillus fumigatus conidia, drug or chemoattractant that was outside of the FCCs. The device was then submerged in 0.5 mL of cell media. Neutrophils or white blood cells (20,000 cells/2 μL) were then pipetted into the cell loading chamber (CLC) using a gel-loading pipette tip. Neutrophil migration into the migration channel toward the FCC started immediately and was recorded using time-lapse imaging on a fully automated Nikon TiE microscope (10× magnification) with biochamber heated to 37° C. with 5% carbon dioxide gas. Image analysis of cell migration counts and fungi growth was analyzed by hand using Image J software.
Image analysis of cell migration counts and fungi growth was analyzed by hand using Image J software.

Compound	neutrophil (NF) migration counts (FIG. 1) (human neutrophils)	percent hyphal growth compared to remaining conidia (FIG. 2) [1]	timecourse of A. fumigatus (Af) growth in FCCs (FIG. 4) [1]	timecourse of neutrophil (PMNs) migration in FCCs (FIG. 4) (human neutrophils; with A. fumigatus, three healthy blood donors, t=0, 8, and 16 hours)
CC[C@H](C)C[C@H](C)CCCCCCCCC(=O)N[C@H]1C[C@@H](O)[C@@H](NCCN)NC(=O)[C@@H]2[C@@H](O)CCN2C(=O)[C@H]([C@H](O)CCNC(=O)[C@H](Cc2ccccc2)NC(=O)[C@H](CC(C)C)NC(=O)[C@H](CCSC)NC=O)NC(=O)[C@H]([C@H](O)[C@@H](O)c2ccc(O)cc2)NC(=O)[C@@H]2C[C@@H](O)CN2C(=O)[C@H]([C@@H](C)O)NC1=O [Compound 1]	increased NF migration	inhibition of Aspergillus fumigatus hyphal growth; also recorded: able to suppress hyphal growth	–	–
caspofungin acetate [reference compound]	did not give increased NF migration	–	growth of Af	–
CC[C@H](C)C[C@H](C)CCCCCCCCC(=O)N[C@H]1C[C@@H](O)[C@@H](OCCN)NC(=O)[C@@H]2[C@@H](O)CCN2C(=O)[C@H]([C@H](O)CCNC(=O)[C@H](Cc2ccccc2)NC(=O)[C@H](CC(C)C)NC(=O)[C@H](CCSC)NC=O)NC(=O)[C@H]([C@H](O)[C@@H](O)c2ccc(O)cc2)NC(=O)[C@@H]2C[C@@H](O)CN2C(=O)[C@H]([C@@H](C)O)NC1=O [Compound 11]	increased NF migration	inhibition of Aspergillus fumigatus hyphal growth; also recorded: able to suppress hyphal growth	inhibition of growth of Af	migration of PMNs
